# Experimental data published in ChEMBL document CHEMBL1201862, “PubChem BioAssay data set” (2004).
# Active and inactive are the calls of the source.
# What was measured:
# [1] = target: Photoreceptor-specific nuclear receptor (Homo sapiens, UniProt Q9Y5X4); test: ligands suppressing NR2E3 nuclear receptor activity – biochemical, TR-FRET, dose response (AID 463256); assay type: functional
# [2] = target: Peroxisome proliferator-activated receptor gamma/Nuclear receptor corepressor 2 (Homo sapiens, UniProt P37231+Q9Y618); test: Counterscreen for NR2E3 inverse agonists: TR-FRET-based biochemical high throughput dose response assay to identify inverse agonists of the interaction between peroxisome proliferator-activated receptor gamma (PPARg) and nuclear receptor co-repressor 2 (NCOR2).; assay type: functional
# [3] = target: Solute carrier family 12 member 2/member 5 (Homo sapiens, UniProt P55011+Q9H2X9); test: KCC2 and NKCC1 inhibition by rubidium flux, cell-based, NKCC1 counter-screen (AID 1734); assay type: functional, HEK293
# [4] = M. tuberculosis H37Rv growth inhibitors, H37Rv strain (AID 1626); assay type: functional
# [5] = target: T1, Kappa-type opioid receptor (Homo sapiens, UniProt P41145); assay type: functional
# [6] = target: T1, Kappa-type opioid receptor; assay type: functional; remark: listed apart in the source
# [7] = viability loss in HeLa cells – cytotoxicity control for MgcRacGAP inhibitor project, dose response (AID 624300); assay type: functional
# [8] = target: Neuropeptide Y receptor type 1 (Homo sapiens, UniProt P25929); assay type: functional;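 note: HEK293 cells with a CNG channel challenged with NPY then isoproterenol; potency as antagonist that reverses NPY suppression of cAMP signal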
# [9] = target: Beta-galactosidase (Escherichia coli, UniProt Q8VNN2); assay type: functional
# [10] = target: Beta Lactamase (Pseudomonas aeruginosa, UniProt Q932Y6); test: BLA reporter interference, concentration series – BLA reporter cells, FRET fluorescence, artefact control for NOD2-RIPK2 interaction inhibitor project, dose response (AID 651552); assay type: functional, cell-based
# [11] = Fluorescence-based cell-based high throughput dose response assay for inhibitors of the interaction of nucleotide-binding oligomerization domain containing 2 (NOD2) and the receptor-interacting serine-threonine kinase 2 (RIPK2).; assay type: functional; conditions: Homo sapiens
# [12] = target: T2, Microphthalmia-associated transcription factor (Homo sapiens, UniProt O75030); test: reducers of TRPM1 reporter luminescence, concentration series – cell-based, SK-MEL-5, cherry-picked, set 3, MITF inhibitor project, dose response (AID 493073); assay type: functional;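 note: SK-MEL-5 melanoma cells with luciferase driven by the MITF target TRPM1 promoter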
# T2 sequence (O75030 whole entry): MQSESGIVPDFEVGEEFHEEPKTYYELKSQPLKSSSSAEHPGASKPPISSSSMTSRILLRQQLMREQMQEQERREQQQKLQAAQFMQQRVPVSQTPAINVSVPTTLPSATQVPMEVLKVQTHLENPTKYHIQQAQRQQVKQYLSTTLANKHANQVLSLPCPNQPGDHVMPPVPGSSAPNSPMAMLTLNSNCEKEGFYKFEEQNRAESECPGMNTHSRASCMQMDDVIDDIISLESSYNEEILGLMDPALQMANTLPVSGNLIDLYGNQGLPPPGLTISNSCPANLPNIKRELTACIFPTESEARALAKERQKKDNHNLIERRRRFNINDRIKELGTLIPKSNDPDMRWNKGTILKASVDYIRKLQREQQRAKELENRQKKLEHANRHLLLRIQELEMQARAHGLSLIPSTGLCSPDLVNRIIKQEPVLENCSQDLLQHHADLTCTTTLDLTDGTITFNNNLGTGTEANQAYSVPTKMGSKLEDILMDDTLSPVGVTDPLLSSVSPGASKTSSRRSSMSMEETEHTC
# [13] = target: Neuropeptide Y receptor type 2 (Homo sapiens, UniProt P49146); assay type: functional, cell-based;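 note: HEK293 cells expressing the receptor and a CNG channel; stimulus was NPY near EC95 followed by isoproterenol to raise cAMP; antagonist potency measured as restoring cAMP signal that NPY suppresses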
# [14] = target: T3, Rac GTPase-activating protein 1 (Homo sapiens, UniProt Q9H0H5); test: blockers of MgcRacGAP-driven Rac1 GTP hydrolysis – biochemical, ADP Hunter fluorescence, primary and confirmatory, confirmation (AID 624330); assay type: functional
# T3 sequence (Q9H0H5 whole entry): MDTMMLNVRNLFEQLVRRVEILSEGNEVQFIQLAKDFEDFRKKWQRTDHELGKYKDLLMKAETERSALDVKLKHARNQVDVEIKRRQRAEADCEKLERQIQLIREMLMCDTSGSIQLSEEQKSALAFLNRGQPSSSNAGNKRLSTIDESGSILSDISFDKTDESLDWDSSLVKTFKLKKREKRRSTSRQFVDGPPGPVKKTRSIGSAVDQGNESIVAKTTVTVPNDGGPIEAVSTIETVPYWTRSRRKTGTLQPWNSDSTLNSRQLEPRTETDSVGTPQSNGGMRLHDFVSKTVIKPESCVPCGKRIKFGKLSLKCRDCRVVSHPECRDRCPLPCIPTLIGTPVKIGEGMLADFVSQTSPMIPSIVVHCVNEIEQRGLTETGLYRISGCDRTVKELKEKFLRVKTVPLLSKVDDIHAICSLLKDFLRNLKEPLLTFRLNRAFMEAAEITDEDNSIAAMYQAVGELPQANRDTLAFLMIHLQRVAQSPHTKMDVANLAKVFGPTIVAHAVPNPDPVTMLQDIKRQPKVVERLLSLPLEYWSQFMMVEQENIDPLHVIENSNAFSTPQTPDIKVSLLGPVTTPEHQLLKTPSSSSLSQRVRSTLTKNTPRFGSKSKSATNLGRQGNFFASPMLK
# [15] = target: NADPH oxidase 1 (Homo sapiens, UniProt Q9Y5S8); test: Late-stage luminescence-based cell-based dose response assay to identify inhibitors of NADPH oxidase 1 (NOX1): Purchased analogs 2.; assay type: functional
# [16] = Luminescent dose response cell-based high throughput screening assay for inhibitors of the Janus kinase 2 mutant JAK2V617F. [Related pubchem assays: 1446 (Primary screen.), 1521 (Confirmation assay.), 1486 (Counter screen.)]; assay type: functional
# [17] = target: T4, Estrogen receptor (Homo sapiens, UniProt P03372); test: ERα coactivator recruitment enhancers – biochemical, TR-FRET, ERα LBD, dose response (AID 737)
# T4 sequence (P03372 whole entry): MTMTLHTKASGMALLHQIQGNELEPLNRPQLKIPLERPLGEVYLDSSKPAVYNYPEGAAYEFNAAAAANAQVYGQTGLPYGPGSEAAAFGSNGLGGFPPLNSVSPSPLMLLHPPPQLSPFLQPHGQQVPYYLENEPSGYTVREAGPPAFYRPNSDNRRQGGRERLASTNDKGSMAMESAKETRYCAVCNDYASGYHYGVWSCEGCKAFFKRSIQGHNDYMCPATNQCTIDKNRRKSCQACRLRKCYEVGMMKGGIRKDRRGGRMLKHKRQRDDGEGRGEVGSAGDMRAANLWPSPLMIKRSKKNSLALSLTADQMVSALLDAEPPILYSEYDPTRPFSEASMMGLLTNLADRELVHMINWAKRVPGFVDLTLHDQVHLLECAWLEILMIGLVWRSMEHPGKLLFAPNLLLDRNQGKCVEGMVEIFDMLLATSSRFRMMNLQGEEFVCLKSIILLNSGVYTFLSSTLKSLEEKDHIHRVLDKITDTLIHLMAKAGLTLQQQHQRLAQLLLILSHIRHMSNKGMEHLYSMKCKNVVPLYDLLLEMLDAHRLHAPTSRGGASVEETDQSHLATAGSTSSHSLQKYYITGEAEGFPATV
# T1 sequence (P41145 whole entry): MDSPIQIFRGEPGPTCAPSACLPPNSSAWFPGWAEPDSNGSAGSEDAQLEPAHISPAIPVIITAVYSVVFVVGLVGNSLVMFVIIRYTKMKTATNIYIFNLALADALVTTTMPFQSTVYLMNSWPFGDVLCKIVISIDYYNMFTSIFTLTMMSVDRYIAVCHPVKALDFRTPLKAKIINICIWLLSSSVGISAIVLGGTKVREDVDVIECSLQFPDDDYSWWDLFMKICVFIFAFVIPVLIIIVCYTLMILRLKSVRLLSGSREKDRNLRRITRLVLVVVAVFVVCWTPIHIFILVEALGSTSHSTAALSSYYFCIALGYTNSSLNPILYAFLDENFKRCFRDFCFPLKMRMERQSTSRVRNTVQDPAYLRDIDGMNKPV
# Chain of Photoreceptor-specific nuclear receptor (Q9Y5X4 whole entry): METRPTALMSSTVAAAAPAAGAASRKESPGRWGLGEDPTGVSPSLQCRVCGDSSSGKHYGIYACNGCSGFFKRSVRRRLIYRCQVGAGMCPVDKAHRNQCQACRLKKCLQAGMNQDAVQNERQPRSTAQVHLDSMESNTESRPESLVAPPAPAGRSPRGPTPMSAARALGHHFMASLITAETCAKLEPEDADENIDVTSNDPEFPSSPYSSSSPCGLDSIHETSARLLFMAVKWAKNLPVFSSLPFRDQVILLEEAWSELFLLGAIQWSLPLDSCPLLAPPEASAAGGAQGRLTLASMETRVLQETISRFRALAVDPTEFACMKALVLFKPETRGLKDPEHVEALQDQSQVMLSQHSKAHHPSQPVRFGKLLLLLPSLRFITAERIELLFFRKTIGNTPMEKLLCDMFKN
# Chain of Beta-galactosidase (Q8VNN2 whole entry): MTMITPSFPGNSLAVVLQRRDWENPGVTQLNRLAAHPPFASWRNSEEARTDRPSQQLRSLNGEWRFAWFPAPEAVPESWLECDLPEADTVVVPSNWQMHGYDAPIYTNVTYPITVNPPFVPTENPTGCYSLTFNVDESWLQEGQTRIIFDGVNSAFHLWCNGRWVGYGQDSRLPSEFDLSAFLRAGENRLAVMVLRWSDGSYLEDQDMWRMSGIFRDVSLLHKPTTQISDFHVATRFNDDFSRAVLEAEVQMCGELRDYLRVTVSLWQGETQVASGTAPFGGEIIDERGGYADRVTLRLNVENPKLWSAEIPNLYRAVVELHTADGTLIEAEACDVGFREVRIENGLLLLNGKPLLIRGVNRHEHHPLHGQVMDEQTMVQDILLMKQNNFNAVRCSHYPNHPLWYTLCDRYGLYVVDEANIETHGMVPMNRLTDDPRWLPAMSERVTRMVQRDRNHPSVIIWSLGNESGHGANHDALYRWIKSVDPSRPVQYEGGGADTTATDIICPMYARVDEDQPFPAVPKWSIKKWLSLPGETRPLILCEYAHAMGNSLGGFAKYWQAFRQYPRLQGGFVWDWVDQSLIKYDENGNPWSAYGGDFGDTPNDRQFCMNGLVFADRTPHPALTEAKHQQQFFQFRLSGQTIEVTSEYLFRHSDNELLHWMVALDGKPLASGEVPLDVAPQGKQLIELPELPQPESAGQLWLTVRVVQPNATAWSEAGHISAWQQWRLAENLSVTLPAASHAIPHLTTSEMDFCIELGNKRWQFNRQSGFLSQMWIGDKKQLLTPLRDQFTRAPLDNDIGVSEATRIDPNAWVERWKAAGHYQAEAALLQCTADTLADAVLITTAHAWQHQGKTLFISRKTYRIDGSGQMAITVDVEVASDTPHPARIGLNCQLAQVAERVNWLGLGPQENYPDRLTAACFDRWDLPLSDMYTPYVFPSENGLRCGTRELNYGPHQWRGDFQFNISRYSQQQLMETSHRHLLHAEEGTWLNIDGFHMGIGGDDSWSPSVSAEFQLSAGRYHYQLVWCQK
# Chain of Beta Lactamase (Q932Y6 whole entry, the tested form may be a part): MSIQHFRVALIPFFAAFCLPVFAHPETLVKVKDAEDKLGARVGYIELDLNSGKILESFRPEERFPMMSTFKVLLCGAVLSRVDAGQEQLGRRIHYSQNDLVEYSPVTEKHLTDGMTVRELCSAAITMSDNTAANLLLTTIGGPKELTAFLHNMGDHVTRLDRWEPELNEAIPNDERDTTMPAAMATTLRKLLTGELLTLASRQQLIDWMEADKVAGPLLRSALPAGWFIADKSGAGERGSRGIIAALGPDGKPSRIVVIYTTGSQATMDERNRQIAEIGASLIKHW
# Chain of NADPH oxidase 1 (Q9Y5S8 whole entry): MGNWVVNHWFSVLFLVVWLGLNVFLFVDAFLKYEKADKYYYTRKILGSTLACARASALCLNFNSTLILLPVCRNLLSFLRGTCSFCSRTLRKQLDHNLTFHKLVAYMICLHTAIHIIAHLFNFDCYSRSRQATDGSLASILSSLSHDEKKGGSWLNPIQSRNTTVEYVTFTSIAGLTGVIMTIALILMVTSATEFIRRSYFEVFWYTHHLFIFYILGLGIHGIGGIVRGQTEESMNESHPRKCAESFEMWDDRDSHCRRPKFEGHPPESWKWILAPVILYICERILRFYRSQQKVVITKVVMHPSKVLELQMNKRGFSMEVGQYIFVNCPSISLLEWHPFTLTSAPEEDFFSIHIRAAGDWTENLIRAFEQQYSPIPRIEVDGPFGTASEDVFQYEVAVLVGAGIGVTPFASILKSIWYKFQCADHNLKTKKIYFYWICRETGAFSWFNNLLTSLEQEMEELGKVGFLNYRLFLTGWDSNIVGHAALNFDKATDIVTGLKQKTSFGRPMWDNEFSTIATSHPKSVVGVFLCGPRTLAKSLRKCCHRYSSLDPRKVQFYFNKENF
# Chain of Neuropeptide Y receptor type 2 (P49146 whole entry): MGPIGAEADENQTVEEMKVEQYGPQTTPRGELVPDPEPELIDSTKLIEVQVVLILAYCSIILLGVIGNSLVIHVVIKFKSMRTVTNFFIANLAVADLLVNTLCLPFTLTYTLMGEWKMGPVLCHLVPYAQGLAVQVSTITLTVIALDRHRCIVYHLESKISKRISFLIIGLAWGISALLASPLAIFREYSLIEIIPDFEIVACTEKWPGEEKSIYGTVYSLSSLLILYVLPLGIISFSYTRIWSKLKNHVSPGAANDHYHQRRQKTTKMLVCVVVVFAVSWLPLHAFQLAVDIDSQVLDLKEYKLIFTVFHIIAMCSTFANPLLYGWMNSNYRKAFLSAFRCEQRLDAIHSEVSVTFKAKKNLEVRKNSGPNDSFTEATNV
# Chain of Neuropeptide Y receptor type 1 (P25929 whole entry): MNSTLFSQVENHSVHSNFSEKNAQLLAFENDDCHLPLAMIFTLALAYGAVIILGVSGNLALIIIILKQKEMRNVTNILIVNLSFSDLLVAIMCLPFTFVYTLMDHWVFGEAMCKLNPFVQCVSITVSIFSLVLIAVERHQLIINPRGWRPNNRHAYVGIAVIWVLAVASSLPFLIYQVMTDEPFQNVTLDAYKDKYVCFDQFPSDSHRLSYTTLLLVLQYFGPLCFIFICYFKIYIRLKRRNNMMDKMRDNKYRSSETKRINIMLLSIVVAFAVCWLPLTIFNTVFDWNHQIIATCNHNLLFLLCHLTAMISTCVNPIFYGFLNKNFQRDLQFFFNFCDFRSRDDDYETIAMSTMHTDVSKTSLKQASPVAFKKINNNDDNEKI
smiles,measurement,setting,value
CC1(C)Cc2ccccc2-c2nnc(SCC(=O)N3CCc4ccccc43)n21,IC50,[1],4.42 µM (active)
same,IC50,[2],7.95 µM (active)
O=C(Cn1cnc2c(nnn2Cc2ccccc2)c1=O)N1CCCc2ccccc21,IC50,[3],6 µM (active)
CCOC(=O)c1ccc(NC(=O)Cn2cccc2)cc1,IC50,[4],> 100 µM (active)
N#CC(C#N)=C1C=CC=CN1/C(=C\c1ccco1)C(=O)c1ccc(Cl)cc1,IC50,[5],16.5 µM
same,IC50,[6],3.64 µM (active)
same,CC50,[7],100 µM (active)
same,IC50,[8],4.08 µM (active)
same,EC50,[9],> 31.5 µM (inactive)
same,IC50,[10],45.9 µM (inactive)
same,IC50,[11],1.13 µM (active)
same,AC50,[12],6.85 µM (active)
same,IC50,[13],3.06 µM (active)
same,IC50,[14],121 µM (active)
COc1ccc(/C=N/Nc2c(F)c(F)c(F)c(F)c2F)cc1,IC50,[15],> 17 µM (not active)
COc1ccc(-c2cnc3c(c2)CCC3(C#N)C#N)cc1,IC50,[16],0.768 µM (active)
CCOC(=O)c1cc2c(c(CSc3nc4ccccc4c(=O)n3Cc3ccco3)c1)OCOC2,EC50,[17],3.27 µM (active)
